Measurements from patent US20230167073A1 (Teijin Pharma Limited, priority 2020, published 2023).
pIC50: −log10 of the molar value.

Each compound was assayed against T1, Human TRPC6 (Homo sapiens, UniProt Q9Y210) (assay: Evaluation of TRPC6 channel inhibitory activity (1), FLIPR Calcium 5 Assay Kit, OAG stimulation (Compound Nos. 1-1293)). Settings: not given.
T1 construct: expressed in transfected cells
T1 sequence (Q9Y210 1-931): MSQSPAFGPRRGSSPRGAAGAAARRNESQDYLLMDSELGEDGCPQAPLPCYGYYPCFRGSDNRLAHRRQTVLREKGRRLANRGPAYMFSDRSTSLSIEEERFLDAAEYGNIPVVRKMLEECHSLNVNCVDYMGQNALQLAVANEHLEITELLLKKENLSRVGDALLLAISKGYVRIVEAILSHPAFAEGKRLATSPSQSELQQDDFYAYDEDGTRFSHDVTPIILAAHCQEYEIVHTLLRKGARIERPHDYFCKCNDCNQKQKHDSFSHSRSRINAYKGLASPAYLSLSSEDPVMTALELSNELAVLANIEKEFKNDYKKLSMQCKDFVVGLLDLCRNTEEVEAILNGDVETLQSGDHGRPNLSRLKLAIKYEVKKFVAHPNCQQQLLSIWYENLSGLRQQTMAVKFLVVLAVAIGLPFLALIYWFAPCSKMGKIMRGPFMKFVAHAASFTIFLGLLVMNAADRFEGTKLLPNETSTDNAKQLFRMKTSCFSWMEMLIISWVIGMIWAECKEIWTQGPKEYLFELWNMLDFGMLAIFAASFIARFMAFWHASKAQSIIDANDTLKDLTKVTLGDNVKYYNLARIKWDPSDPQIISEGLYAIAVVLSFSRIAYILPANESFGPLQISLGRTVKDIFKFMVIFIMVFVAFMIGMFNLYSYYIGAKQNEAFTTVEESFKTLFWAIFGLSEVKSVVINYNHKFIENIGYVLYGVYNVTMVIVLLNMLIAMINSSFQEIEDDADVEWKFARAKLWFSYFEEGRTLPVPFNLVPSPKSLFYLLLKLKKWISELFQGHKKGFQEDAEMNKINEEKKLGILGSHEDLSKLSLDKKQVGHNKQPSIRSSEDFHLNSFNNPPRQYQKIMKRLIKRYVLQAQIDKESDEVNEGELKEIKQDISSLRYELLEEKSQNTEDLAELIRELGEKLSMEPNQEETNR
Assay type: cell-based
Method in brief: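 Readout is pIC50 from four-parameter logistic fitting of inhibition of the OAG-evoked (30 μM final) fluorescence calcium signal. Human TRPC6 stable cells are dye-loaded with probenecid, and compound is applied 20 min ahead of agonist.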

Compound | pIC50
Cc1cc(Oc2cc(C#N)ccc2-c2ncc(CCN)cn2)cc(N2C3CCC2COC3)n1 [compound 445, 4-[5-(2-aminoethyl)pyrimidin-2-yl]-3-[2-methyl-6-(3-oxa-8-azabicyclo[3.2.1]octan-8-yl)pyridin-4-yl]oxybenzonitrile] | > 8.00
Cc1cc(Oc2cc(C#N)ccc2-c2ccc([C@H](O)CN)cn2)cc(N2C3CCC2COC3)n1 [compound 446, 4-[5-[(1S)-2-amino-1-hydroxyethyl]pyridin-2-yl]-3-[2-methyl-6-(3-oxa-8-azabicyclo[3.2.1]octan-8-yl)pyridin-4-yl]oxybenzonitrile] | > 8.00

Same assay, conditions: Human TRPC6 stably-expressing cells, OAG 30 μM, FLIPR Calcium 5 Assay Kit; read-out: Inhibitory activity (pIC50 class) (converted)

Compound | IC50 [nM]
Cn1nc(C2CC2)cc1Oc1cc(C#N)ccc1-c1ncc(C(N)CO)cn1 (stereo not shown) [compound 420, 4-[5-(1-amino-2-hydroxyethyl)pyrimidin-2-yl]-3-(5-cyclopropyl-2-methylpyrazol-3-yl)oxybenzonitrile] | 10 to 1000
Cn1nc(C2CC2)cc1Oc1cc(C#N)ccc1-c1ccc(C(N)CO)cn1 (stereo not shown) [compound 421, 4-[5-(1-amino-2-hydroxyethyl)pyridin-2-yl]-3-(5-cyclopropyl-2-methylpyrazol-3-yl)oxybenzonitrile] | 10 to 1000
Cn1nc(C2CC2)cc1Oc1cc(C#N)ccc1-c1ccc(C(N)C#N)cn1 (stereo not shown) [compound 422, 4-[5-[amino(cyano)methyl]pyridin-2-yl]-3-(5-cyclopropyl-2-methylpyrazol-3-yl)oxybenzonitrile] | 10 to 1000
Cc1cc(Oc2cc(C#N)ccc2-c2ccc(C(N)C#N)cn2)cc(N2CCOCC2)n1 (stereo not shown) [compound 423, 4-[5-[amino(cyano)methyl]pyridin-2-yl]-3-(2-methyl-6-morpholin-4-ylpyridin-4-yl)oxybenzonitrile] | 10 to 1000
Cn1nc(C2CC2)cc1Oc1cc(C#N)ccc1-c1ccc(CN2CCOCC2)cn1 [compound 424, 3-(5-cyclopropyl-2-methylpyrazol-3-yl)oxy-4-[5-(morpholin-4-ylmethyl)pyridin-2-yl]benzonitrile] | > 1000
Cc1cc(Oc2cc(C#N)ccc2-c2ccc(CN3CCOCC3)cn2)cc(N2CCOCC2)n1 [compound 425, 3-(2-methyl-6-morpholin-4-ylpyridin-4-yl)oxy-4-[5-(morpholin-4-ylmethyl)pyridin-2-yl]benzonitrile] | > 1000
Cn1nc(C2CC2)cc1Oc1cc(C#N)ccc1-c1ccc(C(N)C(=O)O)cn1 (stereo not shown) [compound 426, 2-amino-2-[6-[4-cyano-2-(5-cyclopropyl-2-methylpyrazol-3-yl)oxyphenyl]pyridin-3-yl]acetic acid] | < 10
Cn1nc(C2CC2)cc1Oc1cc(C#N)ccc1-c1ccc(C2CNCCO2)cn1 (stereo not shown) [compound 427, 3-(5-cyclopropyl-2-methylpyrazol-3-yl)oxy-4-(5-morpholin-2-ylpyridin-2-yl)benzonitrile] | 10 to 1000
Cn1nc(-c2ccccc2)cc1Oc1cc(C#N)ccc1-c1ccc(C(N)C(=O)O)cn1 (stereo not shown) [compound 428, 2-amino-2-[6-[4-cyano-2-(2-methyl-5-phenylpyrazol-3-yl)oxyphenyl]pyridin-3-yl]acetic acid] | 10 to 1000
Cc1cc(Oc2cc(C#N)ccc2-c2ccc([C@H](O)CN)cn2)cc(N2CCOCC2)n1 [compound 429, 4-[5-[(1S)-2-amino-1-hydroxyethyl]pyridin-2-yl]-3-(2-methyl-6-morpholin-4-ylpyridin-4-yl)oxybenzonitrile] | < 10
Cc1cc(Oc2cc(C#N)ccc2-c2ncc([C@H](O)CN)cn2)cc(N2CCOCC2)n1 [compound 430, 4-[5-[(1S)-2-amino-1-hydroxyethyl]pyrimidin-2-yl]-3-(2-methyl-6-morpholin-4-ylpyridin-4-yl)oxybenzonitrile] | < 10
Cn1nc(C2CC2)cc1Oc1cc(C#N)ccc1-c1cnc(NCCN)nc1 [compound 431, 4-[2-(2-aminoethylamino)pyrimidin-5-yl]-3-(5-cyclopropyl-2-methylpyrazol-3-yl)oxybenzonitrile] | 10 to 1000
Cn1nc(C2CC2)cc1Oc1cc(C#N)ccc1-c1ncc(NCCN)cn1 [compound 432, 4-[5-(2-aminoethylamino)pyrimidin-2-yl]-3-(5-cyclopropyl-2-methylpyrazol-3-yl)oxybenzonitrile] | < 10
N#Cc1ccc(-c2ccc(C(N)C(=O)O)cn2)c(Oc2cnnc(-c3ccccc3)c2)c1 (stereo not shown) [compound 433, 2-amino-2-[6-[4-cyano-2-(6-phenylpyridazin-4-yl)oxyphenyl]pyridin-3-yl]acetic acid] | 10 to 1000
Cc1nc(Oc2cc(C#N)ccc2-c2ncc(CCN)cn2)cc(N2CCOCC2)n1 [compound 434, 4-[5-(2-aminoethyl)pyrimidin-2-yl]-3-(2-methyl-6-morpholin-4-ylpyrimidin-4-yl)oxybenzonitrile] | < 10
Cc1cc(Oc2cc(C#N)ccc2-c2ccc(C[C@H](N)C(=O)O)cc2)cc(N2CCOCC2)n1 [compound 435, (2S)-2-amino-3-[4-[4-cyano-2-(2-methyl-6-morpholin-4-ylpyridin-4-yl)oxyphenyl]phenyl]propanoic acid] | > 1000

The remaining lines, values ahead:

IC50 [nM] | Compound
> 1000 | Cn1nc(C2CC2)cc1Oc1cc(C#N)ccc1-c1ccc(C[C@H](N)C(=O)O)cc1 [compound 436, (2S)-2-amino-3-[4-[4-cyano-2-(5-cyclopropyl-2-methylpyrazol-3-yl)oxyphenyl]phenyl]propanoic acid]
10 to 1000 | Cc1cc(Oc2cc(C#N)ccc2-c2ccc([C@H](O)CN)cn2)cc(C)n1 [compound 437, 4-[5-[(1S)-2-amino-1-hydroxyethyl]pyridin-2-yl]-3-(2,6-dimethylpyridin-4-yl)oxybenzonitrile]
10 to 1000 | Cc1cc(Oc2cc(C#N)ccc2-c2ncc(CCN)cn2)cc(C)n1 [compound 438, 4-[5-(2-aminoethyl)pyrimidin-2-yl]-3-(2,6-dimethylpyridin-4-yl)oxybenzonitrile]
< 10 | Cc1cc(Oc2cc(C#N)ccc2-c2ncc(CCN)cn2)cc(N2CCO[C@H](C(F)F)C2)n1 [compound 439, 4-[5-(2-aminoethyl)pyrimidin-2-yl]-3-[2-[(2S)-2-(difluoromethyl)morpholin-4-yl]-6-methylpyridin-4-yl]oxybenzonitrile]
< 10 | Cn1nc(C2CCOCC2)cc1Oc1cc(C#N)ccc1-c1ccc(CN)cn1 [compound 440, 4-[5-(aminomethyl)pyridin-2-yl]-3-[2-methyl-5-(oxan-4-yl)pyrazol-3-yl]oxybenzonitrile]
< 10 | Cn1nc(C2CCOCC2)cc1Oc1cc(C#N)ccc1-c1ncc(CN)cn1 [compound 441, 4-[5-(aminomethyl)pyrimidin-2-yl]-3-[2-methyl-5-(oxan-4-yl)pyrazol-3-yl]oxybenzonitrile]
10 to 1000 | Cn1nc(C2CCOCC2)cc1Oc1cc(C#N)ccc1-c1ccc([C@H](O)CN)cn1 [compound 442, 4-[5-[(1S)-2-amino-1-hydroxyethyl]pyridin-2-yl]-3-[2-methyl-5-(oxan-4-yl)pyrazol-3-yl]oxybenzonitrile]
10 to 1000 | Cn1nc(C2CC2)cc1Oc1cc(C#N)ccc1-c1cc(CN)ccn1 [compound 443, 4-[4-(aminomethyl)pyridin-2-yl]-3-(5-cyclopropyl-2-methylpyrazol-3-yl)oxybenzonitrile]
< 10 | Cc1cc(Oc2cc(C#N)ccc2-c2ncc(CCN)cn2)cc(N2CCO[C@@H](C(F)F)C2)n1 [compound 444, 4-[5-(2-aminoethyl)pyrimidin-2-yl]-3-[2-[(2R)-2-(difluoromethyl)morpholin-4-yl]-6-methylpyridin-4-yl]oxybenzonitrile]
< 10 | Cc1nc(Oc2cc(C#N)ccc2-c2ncc(CCN)cn2)cc(N2CCCCC2)n1 [compound 447, 4-[5-(2-aminoethyl)pyrimidin-2-yl]-3-(2-methyl-6-piperidin-1-ylpyrimidin-4-yl)oxybenzonitrile]
< 10 | Cc1nc(Oc2cc(C#N)ccc2-c2ncc(CCN)cn2)cc(N2CCCC2)n1 [compound 448, 4-[5-(2-aminoethyl)pyrimidin-2-yl]-3-(2-methyl-6-pyrrolidin-1-ylpyrimidin-4-yl)oxybenzonitrile]
> 1000 | Cc1nc(Oc2cc(C#N)ccc2-n2cc(CC(N)C(=O)O)c3ccccc32)cc(-c2ccccc2)n1 (stereo not shown) [compound 449, 2-amino-3-[1-[4-cyano-2-(2-methyl-6-phenylpyrimidin-4-yl)oxyphenyl]indol-3-yl]propanoic acid]
> 1000 | Cn1nc(C2CC2)cc1Oc1cc(C#N)ccc1-c1cc(N)ccn1 [compound 450, 4-(4-aminopyridin-2-yl)-3-(5-cyclopropyl-2-methylpyrazol-3-yl)oxybenzonitrile]
